The record followed here is ChEMBL document CHEMBL5137065, “Recent Advances with KDM4 Inhibitors and Potential Applications” (J Med Chem, 2022).

Experiment [1] deals with T1, Lysine-specific demethylase 4A (Homo sapiens, UniProt O75164).
T1 sequence (O75164 whole entry): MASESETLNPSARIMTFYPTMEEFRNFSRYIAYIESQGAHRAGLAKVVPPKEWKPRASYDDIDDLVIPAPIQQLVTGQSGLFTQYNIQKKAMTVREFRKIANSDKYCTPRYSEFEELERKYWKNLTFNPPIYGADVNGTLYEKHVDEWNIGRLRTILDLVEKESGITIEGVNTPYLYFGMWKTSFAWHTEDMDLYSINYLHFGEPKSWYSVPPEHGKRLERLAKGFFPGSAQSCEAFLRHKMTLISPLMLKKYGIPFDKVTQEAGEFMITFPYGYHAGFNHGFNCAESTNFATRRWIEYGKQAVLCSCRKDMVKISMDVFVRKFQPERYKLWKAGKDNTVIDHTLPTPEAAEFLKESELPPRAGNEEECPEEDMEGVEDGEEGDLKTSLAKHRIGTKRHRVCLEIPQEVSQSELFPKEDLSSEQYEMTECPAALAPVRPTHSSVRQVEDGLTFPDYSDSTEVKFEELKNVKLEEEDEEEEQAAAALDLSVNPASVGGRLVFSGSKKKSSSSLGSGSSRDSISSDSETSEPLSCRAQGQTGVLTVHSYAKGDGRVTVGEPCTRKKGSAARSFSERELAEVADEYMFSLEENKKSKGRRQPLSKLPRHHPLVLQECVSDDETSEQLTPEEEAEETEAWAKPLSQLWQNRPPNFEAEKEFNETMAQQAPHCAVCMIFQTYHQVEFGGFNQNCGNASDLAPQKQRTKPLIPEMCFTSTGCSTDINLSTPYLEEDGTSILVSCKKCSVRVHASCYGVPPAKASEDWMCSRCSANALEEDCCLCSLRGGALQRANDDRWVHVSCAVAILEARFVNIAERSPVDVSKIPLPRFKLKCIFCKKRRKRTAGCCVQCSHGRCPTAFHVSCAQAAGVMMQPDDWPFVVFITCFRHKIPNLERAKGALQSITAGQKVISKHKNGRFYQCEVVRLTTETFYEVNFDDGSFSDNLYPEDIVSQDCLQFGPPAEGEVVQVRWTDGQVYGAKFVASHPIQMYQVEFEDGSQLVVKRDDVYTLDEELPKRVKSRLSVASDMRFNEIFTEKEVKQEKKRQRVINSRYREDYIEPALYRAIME
The experiment is described as follows: Inhibition of KDM4A (unknown origin) measured by formaldehyde dehydrogenase (FDH)-coupled fluorescence assay.

In experiment [2] the target is T1, Lysine-specific demethylase 4A. The experiment is described as follows: Inhibition of KDM4A (unknown origin) measured by LANCEUltra assay.
The target is the same in experiment [3]. The experiment is described as follows: Inhibition of KDM4A in human KYSE-150 cells assessed as increase in H3K9me3 level. The format is cell-based, KYSE-150 cell line.
For a further experiment, the system named is KYSE-150 cell line. The experiment is described as follows: Antiproliferative activity against human KYSE-150 cells. The format is functional.
A further experiment relates to HL-60. The experiment is described as follows: Antiproliferative activity against human HL-60 cells. The format is functional.
Experiment [4] deals with T1, Lysine-specific demethylase 4A. The experiment is described as follows: Inhibition of KDM4A (unknown origin) measured by AlphaScreen assay.
The target in experiment [5] is T2, Lysine-specific demethylase 4C (Homo sapiens, UniProt Q9H3R0).
T2 sequence (Q9H3R0 whole entry): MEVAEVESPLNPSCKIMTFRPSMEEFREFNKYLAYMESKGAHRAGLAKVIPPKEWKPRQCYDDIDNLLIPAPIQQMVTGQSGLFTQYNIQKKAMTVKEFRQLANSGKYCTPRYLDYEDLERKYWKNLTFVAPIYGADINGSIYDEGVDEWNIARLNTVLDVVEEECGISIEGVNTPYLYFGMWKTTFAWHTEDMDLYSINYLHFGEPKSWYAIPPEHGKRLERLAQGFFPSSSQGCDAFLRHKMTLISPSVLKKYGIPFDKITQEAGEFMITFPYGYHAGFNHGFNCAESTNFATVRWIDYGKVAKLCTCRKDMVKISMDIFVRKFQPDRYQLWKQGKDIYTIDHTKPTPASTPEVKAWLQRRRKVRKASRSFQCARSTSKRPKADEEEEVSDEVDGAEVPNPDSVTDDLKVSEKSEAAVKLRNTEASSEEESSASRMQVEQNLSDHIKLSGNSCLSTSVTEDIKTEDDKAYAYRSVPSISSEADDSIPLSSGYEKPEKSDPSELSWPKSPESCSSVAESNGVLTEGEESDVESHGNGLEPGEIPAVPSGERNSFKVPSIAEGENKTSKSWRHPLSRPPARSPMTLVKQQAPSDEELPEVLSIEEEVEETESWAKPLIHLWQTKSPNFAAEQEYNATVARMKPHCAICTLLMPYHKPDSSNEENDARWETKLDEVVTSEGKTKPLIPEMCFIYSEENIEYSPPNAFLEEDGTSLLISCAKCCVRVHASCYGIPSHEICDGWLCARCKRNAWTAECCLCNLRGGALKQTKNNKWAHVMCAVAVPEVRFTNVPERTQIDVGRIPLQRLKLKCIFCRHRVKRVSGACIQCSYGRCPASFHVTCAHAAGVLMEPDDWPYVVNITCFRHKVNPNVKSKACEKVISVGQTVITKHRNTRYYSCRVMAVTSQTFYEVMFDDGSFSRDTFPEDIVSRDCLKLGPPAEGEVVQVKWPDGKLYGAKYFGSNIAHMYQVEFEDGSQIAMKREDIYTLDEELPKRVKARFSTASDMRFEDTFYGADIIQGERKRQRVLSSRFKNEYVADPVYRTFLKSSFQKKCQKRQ
The experiment is described as follows: Inhibition of KDM4C (unknown origin) measured by AlphaScreen assay. (In general: Alpha assays give light when donor and acceptor beads are brought close together.)

Experiment [6] has as its target T3, Lysine-specific demethylase 2A (Homo sapiens, UniProt Q9Y2K7).
T3 sequence (Q9Y2K7 whole entry): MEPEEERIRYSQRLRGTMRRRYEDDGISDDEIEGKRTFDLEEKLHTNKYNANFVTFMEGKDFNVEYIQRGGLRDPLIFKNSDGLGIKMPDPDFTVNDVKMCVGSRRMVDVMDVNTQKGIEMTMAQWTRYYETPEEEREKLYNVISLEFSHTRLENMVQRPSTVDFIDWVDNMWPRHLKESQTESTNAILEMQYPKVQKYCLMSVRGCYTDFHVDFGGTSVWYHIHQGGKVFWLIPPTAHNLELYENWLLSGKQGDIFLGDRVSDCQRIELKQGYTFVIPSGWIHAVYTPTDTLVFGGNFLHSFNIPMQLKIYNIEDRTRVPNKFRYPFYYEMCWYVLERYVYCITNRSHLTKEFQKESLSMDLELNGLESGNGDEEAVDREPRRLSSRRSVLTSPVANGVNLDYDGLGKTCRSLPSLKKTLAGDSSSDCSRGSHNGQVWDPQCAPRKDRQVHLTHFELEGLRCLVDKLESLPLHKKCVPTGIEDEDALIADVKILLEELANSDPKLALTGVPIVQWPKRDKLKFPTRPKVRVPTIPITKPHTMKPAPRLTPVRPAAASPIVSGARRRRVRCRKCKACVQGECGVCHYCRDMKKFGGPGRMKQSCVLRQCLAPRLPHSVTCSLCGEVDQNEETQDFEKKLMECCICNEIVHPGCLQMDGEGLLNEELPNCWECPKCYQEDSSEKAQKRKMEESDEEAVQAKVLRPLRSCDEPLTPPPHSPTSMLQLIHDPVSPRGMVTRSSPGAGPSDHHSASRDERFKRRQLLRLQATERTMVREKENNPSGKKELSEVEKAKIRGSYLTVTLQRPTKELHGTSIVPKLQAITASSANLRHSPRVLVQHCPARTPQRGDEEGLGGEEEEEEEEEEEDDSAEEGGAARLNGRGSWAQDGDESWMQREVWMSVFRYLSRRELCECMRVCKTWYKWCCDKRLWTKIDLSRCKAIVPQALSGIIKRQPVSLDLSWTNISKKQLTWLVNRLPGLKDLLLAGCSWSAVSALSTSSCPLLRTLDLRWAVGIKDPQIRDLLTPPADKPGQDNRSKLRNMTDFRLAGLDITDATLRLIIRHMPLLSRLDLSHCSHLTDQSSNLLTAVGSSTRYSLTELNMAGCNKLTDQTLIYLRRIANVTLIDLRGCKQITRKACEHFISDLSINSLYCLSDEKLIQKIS
The experiment is described as follows: Inhibition of KDM2A in human MIA PaCa-2 cells assessed as induction of H3K36me2 measured by immunofluorescence assay. The format is cell-based.

Experiment [7] addresses T1, Lysine-specific demethylase 4A.
The target in experiment [8] is Lysine-specific demethylase 5A (Homo sapiens, UniProt P29375). The experiment is described as follows: Inhibition of KDM5A (unknown origin) measured by AlphaScreen assay.
Chain of Lysine-specific demethylase 5A (P29375 whole entry): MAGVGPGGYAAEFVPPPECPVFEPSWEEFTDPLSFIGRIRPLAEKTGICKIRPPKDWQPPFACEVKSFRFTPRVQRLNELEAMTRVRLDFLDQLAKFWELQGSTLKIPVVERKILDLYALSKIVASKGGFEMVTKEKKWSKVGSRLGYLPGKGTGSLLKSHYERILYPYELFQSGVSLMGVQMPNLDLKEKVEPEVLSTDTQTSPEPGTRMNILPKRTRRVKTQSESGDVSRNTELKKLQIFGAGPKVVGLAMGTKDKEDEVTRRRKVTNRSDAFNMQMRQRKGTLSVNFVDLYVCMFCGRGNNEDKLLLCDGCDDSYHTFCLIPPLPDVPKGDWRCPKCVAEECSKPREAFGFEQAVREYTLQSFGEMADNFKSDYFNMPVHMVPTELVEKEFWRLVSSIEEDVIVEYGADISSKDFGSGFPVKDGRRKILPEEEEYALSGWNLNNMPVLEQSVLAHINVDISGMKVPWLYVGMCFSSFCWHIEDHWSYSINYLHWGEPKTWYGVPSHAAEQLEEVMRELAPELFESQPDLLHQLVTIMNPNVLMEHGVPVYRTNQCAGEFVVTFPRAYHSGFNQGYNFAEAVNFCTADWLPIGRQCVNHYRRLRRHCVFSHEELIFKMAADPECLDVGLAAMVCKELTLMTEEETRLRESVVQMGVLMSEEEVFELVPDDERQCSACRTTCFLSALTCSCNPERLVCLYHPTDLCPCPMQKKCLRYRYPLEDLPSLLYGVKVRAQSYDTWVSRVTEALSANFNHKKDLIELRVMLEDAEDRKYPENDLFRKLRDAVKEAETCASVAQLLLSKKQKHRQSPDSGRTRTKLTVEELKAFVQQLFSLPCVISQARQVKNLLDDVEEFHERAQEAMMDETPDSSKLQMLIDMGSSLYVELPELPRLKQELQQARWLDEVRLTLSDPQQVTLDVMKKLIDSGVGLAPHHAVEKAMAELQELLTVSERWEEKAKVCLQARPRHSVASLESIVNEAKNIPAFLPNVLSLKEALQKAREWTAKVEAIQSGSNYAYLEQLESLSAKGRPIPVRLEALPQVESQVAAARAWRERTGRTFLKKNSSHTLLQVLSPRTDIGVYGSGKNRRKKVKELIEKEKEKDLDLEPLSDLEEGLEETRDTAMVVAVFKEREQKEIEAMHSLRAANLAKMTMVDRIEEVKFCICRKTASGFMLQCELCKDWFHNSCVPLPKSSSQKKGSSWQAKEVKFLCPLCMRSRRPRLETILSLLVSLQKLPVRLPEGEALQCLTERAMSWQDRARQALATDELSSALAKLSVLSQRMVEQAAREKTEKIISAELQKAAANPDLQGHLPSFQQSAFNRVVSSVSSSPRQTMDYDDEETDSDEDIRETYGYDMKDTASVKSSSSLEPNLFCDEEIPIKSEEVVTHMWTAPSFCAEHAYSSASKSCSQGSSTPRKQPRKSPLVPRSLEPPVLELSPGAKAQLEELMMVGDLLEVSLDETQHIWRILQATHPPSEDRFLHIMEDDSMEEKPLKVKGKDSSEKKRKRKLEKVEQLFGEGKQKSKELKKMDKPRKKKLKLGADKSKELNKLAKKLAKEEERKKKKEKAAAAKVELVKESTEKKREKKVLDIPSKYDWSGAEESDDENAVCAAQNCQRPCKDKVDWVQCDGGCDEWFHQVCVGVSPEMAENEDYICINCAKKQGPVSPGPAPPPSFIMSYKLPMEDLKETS
Experiment [9] deals with Lysine-specific demethylase 6B (Homo sapiens, UniProt O15054). The experiment is described as follows: Inhibition of KDM6B (unknown origin) measured by AlphaScreen assay.
Chain of Lysine-specific demethylase 6B (O15054 whole entry): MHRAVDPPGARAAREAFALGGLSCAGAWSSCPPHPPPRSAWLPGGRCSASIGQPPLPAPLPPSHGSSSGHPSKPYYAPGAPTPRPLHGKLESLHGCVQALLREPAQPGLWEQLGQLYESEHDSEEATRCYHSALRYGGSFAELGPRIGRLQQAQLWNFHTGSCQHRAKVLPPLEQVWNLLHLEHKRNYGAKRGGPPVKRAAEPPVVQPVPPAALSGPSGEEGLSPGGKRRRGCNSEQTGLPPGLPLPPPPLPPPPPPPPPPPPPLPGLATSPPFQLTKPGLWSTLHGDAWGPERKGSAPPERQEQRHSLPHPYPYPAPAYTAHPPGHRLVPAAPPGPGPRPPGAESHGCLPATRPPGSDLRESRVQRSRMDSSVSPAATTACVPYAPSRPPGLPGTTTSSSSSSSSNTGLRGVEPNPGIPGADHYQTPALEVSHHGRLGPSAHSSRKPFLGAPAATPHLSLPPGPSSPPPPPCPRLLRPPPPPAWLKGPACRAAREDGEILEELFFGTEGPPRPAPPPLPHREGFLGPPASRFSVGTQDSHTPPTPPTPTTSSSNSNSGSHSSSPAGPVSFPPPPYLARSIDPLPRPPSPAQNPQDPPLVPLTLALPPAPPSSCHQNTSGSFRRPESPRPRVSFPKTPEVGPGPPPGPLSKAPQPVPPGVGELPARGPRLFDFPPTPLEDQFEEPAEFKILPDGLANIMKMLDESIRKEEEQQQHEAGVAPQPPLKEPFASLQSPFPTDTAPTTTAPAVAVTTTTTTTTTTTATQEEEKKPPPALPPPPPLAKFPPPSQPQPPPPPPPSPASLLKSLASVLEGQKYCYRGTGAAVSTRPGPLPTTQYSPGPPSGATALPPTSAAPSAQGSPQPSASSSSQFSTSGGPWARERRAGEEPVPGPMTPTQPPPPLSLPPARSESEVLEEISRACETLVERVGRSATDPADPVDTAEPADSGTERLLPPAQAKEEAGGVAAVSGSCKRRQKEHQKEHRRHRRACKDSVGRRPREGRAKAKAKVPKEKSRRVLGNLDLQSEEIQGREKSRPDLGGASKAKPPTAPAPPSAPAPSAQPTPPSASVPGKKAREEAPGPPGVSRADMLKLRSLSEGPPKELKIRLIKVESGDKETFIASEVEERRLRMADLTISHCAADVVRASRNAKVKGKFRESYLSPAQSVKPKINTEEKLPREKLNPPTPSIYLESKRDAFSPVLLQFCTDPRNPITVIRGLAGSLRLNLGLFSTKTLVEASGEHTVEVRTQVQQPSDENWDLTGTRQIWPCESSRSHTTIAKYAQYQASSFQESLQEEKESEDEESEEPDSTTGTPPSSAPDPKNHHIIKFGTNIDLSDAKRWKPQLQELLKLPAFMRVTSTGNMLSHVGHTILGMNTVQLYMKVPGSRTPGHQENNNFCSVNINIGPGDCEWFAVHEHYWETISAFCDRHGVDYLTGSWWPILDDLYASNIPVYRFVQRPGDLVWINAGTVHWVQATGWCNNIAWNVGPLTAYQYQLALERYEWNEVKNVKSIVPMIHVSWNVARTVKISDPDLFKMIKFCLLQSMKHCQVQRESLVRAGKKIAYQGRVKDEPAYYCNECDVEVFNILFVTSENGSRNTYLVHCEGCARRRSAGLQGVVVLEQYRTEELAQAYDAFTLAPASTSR

Positions of bridges follow the written chain, without caps; N, C: chain ends. Non-standard residues stand in square brackets, D forms with d. Residues, ends and D or L forms follow the SMILES beside them.

Regarding `CC(=O)N(O)CCCCCNC(=O)CCC(=O)N(O)CCCCCNC(=O)CCC(=O)N(O)CCCCCN` [DEFEROXAMINE], the IC50 in [1] was 3.22 µM; in experiment [2] it was 3.33 µM.

Regarding `Cc1c(O)c(=O)ccn1C` [DEFERIPRONE], the IC50 in experiment [1] came out at 3.22 µM; in experiment [2], 3.33 µM.

On to `COC(=O)c1ccc(-n2nc(-c3ccccc3O)nc2-c2ccccc2O)cc1`, for which the EC50 in [3] turned out to be 10 µM. For the same compound, the GI50 in the experiment with KYSE-150 cell line came out at 450 nM; in the experiment on HL-60 it was 1700 nM.

For the compound `Oc1ccccc1-c1nc(-c2ccccc2O)n(-c2ccccc2)n1`, the EC50 in experiment [3] was found to be 3.3 µM. Further, the results for the GI50 with KYSE-150 cell line and in the experiment with HL-60 were 450 nM and 1700 nM, respectively.

`CC[C@H](C)[C@@H]1NC(=O)CNC(=O)[C@H](CO)NC(=O)[C@H](CCCNC(=N)N)NC(=O)[C@H](CCCNC(=N)N)NC(=O)[C@H](Cc2ccccc2)NC(=O)[C@H](CCCNC(=N)N)NC(=O)[C@H]([C@@H](C)O)NC(=O)[C@@H](Cc2ccc(O)cc2)NC(=O)CSC[C@@H](C(N)=O)NC(=O)[C@H](Cc2ccc(O)cc2)NC(=O)[C@H](Cc2ccc(O)cc2)NC(=O)[C@H](Cc2ccccc2)NC(=O)[C@H](C(C)C)NC1=O` ({CH2CO}-[dY]TRFRRSGIVFYYC-NH2; thioether N-14): the IC50 in experiment [4] amounted to 6 nM; in [5], 2.2 nM.

As to `CCCCCC[n+]1ccccc1C=Cc1ccc(N(C)C)cc1`, the IC50 in experiment [6] and in [7] was 280 nM each time.

On to `COC1=C2C[C@@H](C)C[C@H](OC)[C@H](O)[C@@H](C)/C=C(\C)[C@H](OC(N)=O)[C@@H](OC)/C=C\C=C(/C)C(=O)NC(=CC1=O)C2=O` [GELDANAMYCIN], for which the IC50 in experiment [5] is 700 nM; in experiment [8], 130 nM; in [9], 400 nM.

As to `CC(C)[C@@H]1NC(=O)[C@@H](Cc2ccc(O)cc2)NC(=O)CSC[C@@H](C(N)=O)NC(=O)[C@H]([C@@H](C)O)NC(=O)[C@H](Cc2ccc(O)cc2)NC(=O)[C@H](Cc2c[nH]c3ccccc23)NC(=O)[C@H](CCCNC(=N)N)NC(=O)[C@H](Cc2c[nH]c3ccccc23)NC(=O)CNC(=O)[C@H](CO)NC(=O)[C@H](CCCNC(=N)N)NC(=O)[C@H]([C@@H](C)O)NC(=O)[C@H](CC(N)=O)NC(=O)[C@H](Cc2ccc(O)cc2)NC1=O` ({CH2CO}-[dY]VYNTRSGWRWYTC-NH2; thioether N-14), the IC50 in experiment [4] and in experiment [5] was 33 nM throughout.

In the case of `O=C(O)c1ccc(-n2nc(-c3ccccc3O)nc2-c2ccccc2O)cc1` [DEFERASIROX], the results for the IC50 in experiment [1] and in experiment [2] were 3.22 µM and 3.33 µM, respectively. Moreover, the EC50 in experiment [3] worked out at 40.5 µM. The GI50 in the experiment on KYSE-150 cell line is 3300 nM; in the experiment on HL-60 it was 5500 nM.

For orientation: IC50 means the concentration needed to halve the response being measured. A word on the EC50: it is the concentration at which the effect is half-maximal. The term GI50 denotes the concentration giving 50% growth inhibition. Lower therefore signals greater sensitivity of the cells.
